# Experimental data reported in patent publication US9963442B2, “Pyridones as herbicides” (E I DU PONT DE NEMOURS AND COMPANY, priority 2014, dated 2018).
# What was measured:
# Format in all cases: in vivo
# [1] = system: pigweed (Amaranthus retroflexus); assay: Test A preemergence, directed soil spray; conditions: approx. 10 days
# Outline: (§1)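 Postemergence: seedlings 2–10 cm, 1–2 leaf stage, sprayed; preemergence: directed soil spray after sowing. Surfactant-containing non-phytotoxic solvent vehicle. Visual rating vs. controls at ~10 d, 0 = no effect, 100 = complete control.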
# [2] = system: ragweed (common ragweed, Ambrosia elatior); assay: Test A preemergence, directed soil spray; conditions: approx. 10 days
# Outline: as §1
# [3] = system: giant foxtail (Setaria faberii); assay: Test A preemergence, directed soil spray; conditions: approx. 10 days
# Outline: as §1
# kochia (Kochia scoparia) = assay: Test A preemergence, directed soil spray; conditions: approx. 10 days
# Outline: as §1
# [4] = system: Italian ryegrass (Lolium multiflorum); assay: Test A preemergence, directed soil spray; conditions: approx. 10 days
# Outline: as §1
# [5] = system: barnyardgrass (Echinochloa crus-galli); assay: Test A preemergence, directed soil spray; conditions: approx. 10 days
# Outline: as §1
# [6] = system: ragweed (common ragweed, Ambrosia elatior); assay: Test C postemergence; conditions: scale 0 to 100, 0 is no effect, 100 is complete control
# From the text: (§2) Seeds of plant species selected from blackgrass (Alopecurus myosuroides), Italian ryegrass (Lolium multiflorum), winter wheat (Triticum aestivum), galium (catchweed bedstraw, Galium aparine), corn (Zea mays), large (Lg) crabgrass (Digitaria sanguinalis), giant foxtail (Setaria faberii), johnsongrass (Sorghum halepense), lambsquarters (Chenopodium album), morningglory (Ipomoea coccinea), yellow nutsedge (Cyperus esculentus), pigweed (Amaranthus retroflexus), ragweed (common ragweed, Ambrosia elatior), soybean (Glycine max), barnyardgrass (Echinochloa crus-galli), oilseed rape (Brassica napus), waterhemp (common waterhemp, Amaranthus rudis), and velvetleaf (Abutilon theophrasti) were planted into a blend of loam soil and sand and treated preemergence with test chemicals formulated in a non-phytotoxic solvent mixture which included a surfactant. At the same time, plants selected from these crop and weed species and also chickweed (common chickweed, Stellaria media), kochia (Kochia scoparia), and wild oat (Avena fatua), were planted in pots containing Sunshine Redi-Earth® planting medium comprising spaghnum peat moss, vermiculite, starter nutrients and dolomitic limestone and treated with postemergence applications of test chemicals formulated in the same manner. Plants ranged in height from 2 to 18 cm (1- to 4-leaf stage) for postemergence treatments. Treated plants and controls were maintained in a greenhouse for 13 to 15 days, after which time all species were compared to controls and visually evaluated. Plant response ratings, summarized in Table C, are based on a scale of 0 to 100 where 0 is no effect and 100 is complete control. A dash (-) response means no test result.
# [7] = system: barnyardgrass (Echinochloa crus-galli); assay: Test C postemergence; conditions: scale 0 to 100, 0 is no effect, 100 is complete control
# From the text: as §2
# [8] = system: sedge, umbrella (small-flower umbrella sedge, Cyperus difformis); assay: Test B flooded paddy test; design: key: 0 = no effect, 100 = complete control; conditions: Flood, 250 g ai/ha applied to paddy water at 2-leaf stage; visually evaluated after 13 to 15 days; scale 0 (no effect) to 100 (complete control)
# Outline: (§3)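 Plants grown to 2-leaf stage; pots flooded 3 cm above soil and compound applied directly into paddy water, depth held throughout. Visual rating against untreated controls after 13 to 15 days in greenhouse, 0 (no effect) to 100 (complete control).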
# [9] = system: barnyardgrass (Echinochloa crus-galli); assay: Test B flooded paddy test; design: key: 0 = no effect, 100 = complete control; conditions: Flood, 250 g ai/ha applied to paddy water at 2-leaf stage; visually evaluated after 13 to 15 days; scale 0 (no effect) to 100 (complete control)
# Outline: as §3
# rice (Oryza sativa) = assay: Test B flooded paddy test; design: key: 0 = no effect, 100 = complete control; conditions: Flood, 250 g ai/ha applied to paddy water at 2-leaf stage; visually evaluated after 13 to 15 days; scale 0 (no effect) to 100 (complete control)
# Outline: as §3
# [10] = system: ducksalad (Heteranthera limosa); assay: Test B flooded paddy test; design: key: 0 = no effect, 100 = complete control; conditions: Flood, 250 g ai/ha applied to paddy water at 2-leaf stage; visually evaluated after 13 to 15 days; scale 0 (no effect) to 100 (complete control)
# Outline: as §3
# [11] = system: velvetleaf (Abutilon theophrasti); assay: Test C preemergence; conditions: scale 0 to 100, 0 is no effect, 100 is complete control
# Outline: (§4)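 Plants are treated pre- or postemergence with test chemical in a solvent mixture plus surfactant and kept in a greenhouse for 13–15 days. Injury is then rated visually relative to untreated plants on a 0–100 scale.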
# [12] = system: giant foxtail (Setaria faberii); assay: Test C preemergence; conditions: scale 0 to 100, 0 is no effect, 100 is complete control
# Outline: as §4
# [13] = system: galium (catchweed bedstraw, Galium aparine); assay: Test C preemergence; conditions: scale 0 to 100, 0 is no effect, 100 is complete control
# Outline: as §4
# [14] = system: winter wheat (Triticum aestivum); assay: Test C preemergence; conditions: scale 0 to 100, 0 is no effect, 100 is complete control
# Outline: as §4
# [15] = system: barnyardgrass (Echinochloa crus-galli); assay: Test C preemergence; conditions: scale 0 to 100, 0 is no effect, 100 is complete control
# Outline: as §4
# [16] = system: large (Lg) crabgrass (Digitaria sanguinalis); assay: Test C preemergence; conditions: scale 0 to 100, 0 is no effect, 100 is complete control
# Outline: as §4
smiles,measurement,setting,value
O=c1cccc(Oc2ncc(Cl)cn2)n1-c1ccc(C(F)(F)F)cc1 [Compound 10],"Plant response rating (0 to 100 scale, 0 no effect, 100 complete control), Pigweed",[1]; 31 g ai/ha,50
same,"Plant response rating (0 to 100 scale, 0 no effect, 100 complete control), Pigweed",[1]; 125 g ai/ha,100
same,"Plant response rating (0 to 100 scale, 0 no effect, 100 complete control), Ragweed",[2]; 31 g ai/ha,0
same,"Plant response rating (0 to 100 scale, 0 no effect, 100 complete control), Ragweed",[2]; 125 g ai/ha,10
same,"Plant response rating (0 to 100 scale, 0 no effect, 100 complete control), Foxtail, Giant",[3]; 31 g ai/ha,70
same,"Plant response rating (0 to 100 scale, 0 no effect, 100 complete control), Foxtail, Giant",[3]; 125 g ai/ha,100
same,"Plant response rating (0 to 100 scale, 0 no effect, 100 complete control), Kochia",kochia (Kochia scoparia); 31 g ai/ha,30
same,"Plant response rating (0 to 100 scale, 0 no effect, 100 complete control), Kochia",kochia (Kochia scoparia); 125 g ai/ha,60
same,"Plant response rating (0 to 100 scale, 0 no effect, 100 complete control), Ryegrass, Italian",[4]; 31 g ai/ha,10
same,"Plant response rating (0 to 100 scale, 0 no effect, 100 complete control), Ryegrass, Italian",[4]; 125 g ai/ha,50
same,"Plant response rating (0 to 100 scale, 0 no effect, 100 complete control), Barnyardgrass",[5]; 31 g ai/ha,50
same,"Plant response rating (0 to 100 scale, 0 no effect, 100 complete control), Barnyardgrass",[5]; 125 g ai/ha,90
same,"Plant response rating, Ragweed",[6]; 16 g ai/ha,25
same,"Plant response rating, Ragweed",[6]; 31 g ai/ha,25
same,"Plant response rating, Ragweed",[6]; 62 g ai/ha,60
same,"Plant response rating, Ragweed",[6]; 125 g ai/ha,65
same,"Plant response rating, Barnyardgrass",[7]; 16 g ai/ha,5
same,"Plant response rating, Barnyardgrass",[7]; 31 g ai/ha,10
same,"Plant response rating, Barnyardgrass",[7]; 62 g ai/ha,25
same,"Plant response rating, Barnyardgrass",[7]; 125 g ai/ha,65
same,"Plant response rating, Sedge, Umbrella",[8],90
same,"Plant response rating, Barnyardgrass",[9],30
same,"Plant response rating, Rice",rice (Oryza sativa),20
same,"Plant response rating, Ducksalad",[10],65
same,"Plant response rating, Velvetleaf",[11]; 16 g ai/ha,0
same,"Plant response rating, Velvetleaf",[11]; 31 g ai/ha,20
same,"Plant response rating, Velvetleaf",[11]; 62 g ai/ha,40
same,"Plant response rating, Velvetleaf",[11]; 125 g ai/ha,55
same,"Plant response rating, Foxtail, Giant",[12]; 16 g ai/ha,55
same,"Plant response rating, Foxtail, Giant",[12]; 31 g ai/ha,90
same,"Plant response rating, Foxtail, Giant",[12]; 62 g ai/ha,100
same,"Plant response rating, Foxtail, Giant",[12]; 125 g ai/ha,100
same,"Plant response rating, Galium",[13]; 16 g ai/ha,0
same,"Plant response rating, Galium",[13]; 31 g ai/ha,80
same,"Plant response rating, Galium",[13]; 62 g ai/ha,60
same,"Plant response rating, Galium",[13]; 125 g ai/ha,98
same,"Plant response rating, Wheat",[14]; 16 g ai/ha,0
same,"Plant response rating, Wheat",[14]; 31 g ai/ha,0
same,"Plant response rating, Wheat",[14]; 62 g ai/ha,5
same,"Plant response rating, Wheat",[14]; 125 g ai/ha,5
same,"Plant response rating, Barnyardgrass",[15]; 16 g ai/ha,15
same,"Plant response rating, Barnyardgrass",[15]; 31 g ai/ha,55
same,"Plant response rating, Barnyardgrass",[15]; 62 g ai/ha,75
same,"Plant response rating, Barnyardgrass",[15]; 125 g ai/ha,98
same,"Plant response rating, Crabgrass, Large",[16]; 16 g ai/ha,75
same,"Plant response rating, Crabgrass, Large",[16]; 31 g ai/ha,98
same,"Plant response rating, Crabgrass, Large",[16]; 62 g ai/ha,100
same,"Plant response rating, Crabgrass, Large",[16]; 125 g ai/ha,100
